Assay results: US12441768B2, “Compositions and methods for treating endometriosis” (EndoMet Biosciences, Inc., priority 2018, dated 2025)
Where a SMILES comes first, the peptide text is derived from it.

Assays:
[1] = biological target: Wnt-responsive promoter (TCF/LEF); experiment: Wnt-dependent luciferase reporter assay; format: cell-based, murine
How it was run: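 EC50 (uM) derived from inhibition of luminescence in Wnt3a-stimulated murine 3T3 cells expressing luciferase under a TCF/LEF promoter, with peptides added across a concentration range and vehicle as control.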

[2] = % Viability non-Wnt responsive cells
β-catenin = biological target: T1, β-catenin (Homo sapiens, UniProt P35222); experiment: KD50 measurement using competitive fluorescence polarization (FP) with labelled TCF4; format: binding; conditions: fluorescence polarization, β-catenin; for Kd: read-out: β-Cat FP KD
T1 sequence (P35222 1-781): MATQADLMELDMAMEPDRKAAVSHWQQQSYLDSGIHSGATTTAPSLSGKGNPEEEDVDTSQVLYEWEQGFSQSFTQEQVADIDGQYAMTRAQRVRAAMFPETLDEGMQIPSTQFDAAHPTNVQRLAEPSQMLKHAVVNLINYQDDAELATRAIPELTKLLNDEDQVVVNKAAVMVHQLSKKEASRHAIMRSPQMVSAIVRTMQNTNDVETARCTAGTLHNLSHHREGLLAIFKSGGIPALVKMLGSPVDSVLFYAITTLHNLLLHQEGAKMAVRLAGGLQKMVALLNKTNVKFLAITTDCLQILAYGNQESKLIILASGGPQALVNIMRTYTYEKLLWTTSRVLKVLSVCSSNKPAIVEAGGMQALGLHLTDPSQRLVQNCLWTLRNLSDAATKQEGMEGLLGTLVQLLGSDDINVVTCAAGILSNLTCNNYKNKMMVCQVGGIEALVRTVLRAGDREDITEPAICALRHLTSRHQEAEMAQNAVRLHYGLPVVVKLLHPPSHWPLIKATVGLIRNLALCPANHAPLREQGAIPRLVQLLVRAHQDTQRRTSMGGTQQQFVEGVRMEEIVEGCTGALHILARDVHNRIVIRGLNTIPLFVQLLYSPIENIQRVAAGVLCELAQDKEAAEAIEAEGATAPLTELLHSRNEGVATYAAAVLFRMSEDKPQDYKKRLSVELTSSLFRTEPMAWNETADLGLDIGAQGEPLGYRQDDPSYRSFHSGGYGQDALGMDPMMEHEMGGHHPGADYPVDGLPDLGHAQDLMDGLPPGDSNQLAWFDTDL
How it was run: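 Each compound competes against labelled TCF4 (5 nM) for 100 nM β-catenin at room temperature, tested over 10 nM to 30 uM. Signal: polarization at 470/520 nm excitation/emission. Three repeat experiments were performed.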

| EC50 [1] | β-Cat FP Hill slope (β-catenin) | Kd (β-catenin) | Compound | viability [2] |
| --- | --- | --- | --- | --- |
| 7.5 to 15 µM | 0.7 | 10 to 30 µM | CC[C@H](C)[C@H](NC(=O)[C@H](CC(C)C)NC(=O)[C@H](Cc1ccc(O)cc1)NC(=O)[C@H](Cc1c[nH]c2ccccc12)NC(=O)[C@H](CCSC)NC(=O)[C@H](CCCNC(=N)N)NC(=O)[C@H](CO)NC(=O)[C@@H](N)CCSC)C(=O)N[C@@H](CO)C(=O)N[C@@H](Cc1ccccc1)C(=O)N[C@@H](Cc1c[nH]c2ccccc12)C(=O)NCC(=O)O [compound 66] (H-MSRMWYLISFWG-OH) | 98.6% |
| < 7.5 µM | 0.93 | 0.4 to 1 µM | CC[C@H](C)[C@H](NC(=O)[C@H](CC(C)C)NC(=O)[C@H](Cc1ccccc1)NC(=O)[C@H](Cc1c[nH]c2ccccc12)NC(=O)[C@H](C)N)C(=O)N[C@@H](CO)C(=O)N[C@@H](Cc1ccccc1)C(=O)N[C@@H](Cc1c[nH]c2ccccc12)C(=O)NCC(=O)O [compound 209] (H-AWFLISFWG-OH) | 91% |
| < 7.5 µM | 0.7 | 1 to 10 µM | CC[C@H](C)[C@@H]1NC(=O)[C@H](CC(C)C)NC(=O)[C@H](Cc2ccccc2)NC(=O)[C@H](Cc2c[nH]c3ccccc23)NC(=O)[C@H](CCSC)NC(=O)[C@@H](N)CCCCNC(=O)C[C@@H](C(=O)O)NC(=O)[C@H](Cc2c[nH]c3ccccc23)NC(=O)[C@H](Cc2ccccc2)NC(=O)[C@H](CO)NC1=O [compound 171] (HELM PEPTIDE1{K.M.W.F.L.I.S.F.W.D}$PEPTIDE1,PEPTIDE1,1:R3-10:R3$$$V2.0) | 79.6% |
| > 30 µM | 0.7 | 1 to 10 µM | CC[C@H](C)[C@H](NC(=O)[C@@H]1CCCN1C(=O)[C@H](Cc1ccccc1)NC(=O)[C@H](Cc1c[nH]c2ccccc12)NC(=O)[C@H](CCSC)NC(=O)[C@H](CCCNC(=N)N)NC(=O)[C@H](CO)NC(=O)[C@@H](N)CCSC)C(=O)N[C@@H](CO)C(=O)N[C@@H](Cc1ccccc1)C(=O)N[C@@H](Cc1c[nH]c2ccccc12)C(=O)NCC(=O)O [compound 65] (H-MSRMWFPISFWG-OH) | 105% |

The next lines start with the compound.

| Compound | EC50 [1] | β-Cat FP Hill slope (β-catenin) | Kd (β-catenin) | viability [2] |
| --- | --- | --- | --- | --- |
| CC[C@H](C)[C@H](NC(=O)[C@H](CC(C)C)NC(=O)[C@H](Cc1ccccc1)NC(=O)[C@H](Cc1c[nH]c2ccccc12)NC(=O)[C@H](CCSC)NC(=O)[C@H](CCCNC(=N)N)NC(=O)[C@@H](NC(=O)[C@@H](N)CCSC)[C@@H](C)CC)C(=O)N[C@@H](CS)C(=O)N[C@@H](C)C(=O)N[C@@H](Cc1c[nH]c2ccccc12)C(=O)NCC(=O)O [compound 166] (H-MIRMWFLICAWG-OH) | > 30 µM | – | > 30 µM | 100% |
| CC[C@H](C)[C@H](NC(=O)[C@H](CC(C)C)NC(=O)[C@H](Cc1ccccc1)NC(=O)[C@H](Cc1c[nH]c2ccccc12)NC(=O)[C@@H](N)CCSC)C(=O)N[C@@H](CO)C(=O)N[C@@H](Cc1ccccc1)C(=O)N[C@@H](C)C(=O)NCC(=O)O [compound 161] (H-MWFLISFAG-OH) | 15 to 22.5 µM | – | > 30 µM | 103% |
| CCOC[C@H](NC(=O)[C@H](CO)NC(=O)[C@@H](NC(=O)[C@H](CC(C)C)NC(=O)[C@H](Cc1ccccc1)NC(=O)[C@@H](N)Cc1c[nH]c2ccccc12)[C@@H](C)CC)C(=O)N[C@@H](Cc1c[nH]c2ccccc12)C(=O)O [compound 104] (H-WFLISS(Et)W-OH) | 7.5 to 15 µM | 3 | 1 to 10 µM | 104% |
| CC[C@H](C)[C@H](NC(=O)[C@H](CC(C)C)NC(=O)[C@H](Cc1ccccc1)NC(=O)[C@H](Cc1c[nH]c2ccccc12)NC(=O)[C@H](Cc1c[nH]c2ccccc12)NC(=O)[C@H](CCCNC(=N)N)NC(=O)[C@H](CO)NC(=O)[C@@H](N)Cc1c[nH]c2ccccc12)C(=O)N[C@@H](CO)C(=O)N[C@@H](Cc1ccccc1)C(=O)N[C@@H](Cc1c[nH]c2ccccc12)C(N)=O [compound 92] (H-WSRWWFLISFW-NH2) | 15 to 22.5 µM | – | > 30 µM | 87.8% |
